Laboratory results taken from article PMC10250618, “Synthesis, structure-activity relationships and biological evaluation of benzimidazole derived sulfonylurea analogues as a new class of antagonists of P2Y1 receptor” (Frontiers in Pharmacology, 2023).
Like-named read-outs stand apart in the source and are kept apart here.

Assays:
[1] = molecular target: T1, r-P2Y6 (Rattus norvegicus, UniProt Q63371); assay: Calcium mobilization assay, r-P2Y6 transfected 1321N1 astrocytoma cells; type: cell-based; conditions: for inhibition at 100 µM: 1321-N1, final conc of 100 μM
T1 construct: host or cells: human 1321N1 astrocytoma cells, stably transfected
Experimental: (§1) Dr. Gary A. Weisman provided human-1321N1 astrocytoma cells that had been transfected by the tP2Y1R, hP2Y2R, hP2Y4R, and rP2Y6R and untransfected 1321N1 astrocytoma cells (University of Missouri Mo., Bond Life Science Center). The DMEM Dulbecco’s Modified Eagle -Medium (Gibco) was added in flasks to cultivate the cell line. 10% of the Fetal bovine serum was also added to the media together with 500 μg/mL of Geneticin (G418) and 1% of the Pen/Strep. The cells in T-75 flask were then cultured and incubated in a CO2 incubator which was maintained at (5%) and 37°C temperature until 90% of the cells were confluent. Throughout the experiment, cells were periodically checked for the confluency and strictly watched for the microbial contamination.
(§2) The FLUOstar Galaxy (BMG LABTECH GmbH, Ortenberg, Germany) microplate reader with two injectors was used to measure the Ca^2+ fluorescence of synthetic compounds. For this assay, 1321N1 transfected cells (t-P2Y1, h-P2Y2, h-P2Y4, and r-P2Y6) were cultured in T-75 flask. When cells reached the confluency of 80%–90%, they were washed with PBS and then Trypsin was added. After trypsinization for 3 min, 20,000 cells/well were allowed to seed in a black wall and 96 well clear bottom plate which was coated with Poly-D-Lysine and allowed to incubate for 24 h in 37°C, 5% CO2 incubator. After incubation, 200 μL culture media was changed with 100 μL HBSS containing Fura-2 AM which is calcium chelating dye and allowed the plate to incubate for 45 min in dark at temp of 37°C in incubator which is maintained with carbon dioxide (5% CO2). After incubation for 45 min, synthesized molecules were added to HBSS washed cells in each well of 96 well plate and re-incubated for 30 min at 37°C. In next step, injection of the endogenous ligand such as ADP through the injector was followed by excitation and emission measurements of Fura-2 AM at 380/520 nm and 340/520. Final volume of the assay per well 200 μL. IC50 values were computed for the compounds displaying more than 50% of activity using Prism 5.0 software (Graph Pad., Inc., San Diego. California, United States) by using analysis i.e., nonlinear regression ([Kassack et al., 2002]; [Ullmann et al., 2005]).

[2] = MTT assay, non-transfected 1321N1 astrocytoma cells; type: cell-based, human; conditions: human, non-transfected 1321N1 astrocytoma cells; at 50 µM; non-transfected astrocytoma 1321N1 cells; triplicate; read-out: H-1321N1 Cell Line (%cytotoxicity ±SEM)
Experimental: A 96-well plate was used to plate 20,000 human 1321N1 astrocytoma cells and allowed for incubation for 24 h at temp of 37°C in CO2 (5%) incubator. Next to this, the prepared culture media was changed to media which was free from FBS, the test compounds were added and the incubation process was repeated. After incubation of 24 h, the serum free media from the wells was discarded, and 100 μL of the reagent i.e., MTT reagent was pipetted. Plate was then additionally incubated at 37°C for 4 h. Utilizing a microplate reader, absorbance was determined at 570 nm and 630 nm for calculation of cell viability (FLUOstarOmega Microplate Reader-BMG LABTECH GmbH, Ortenberg, Germany) ([Sauer et al., 2009]).

[3] = molecular target: T2, h-P2Y4 (Homo sapiens, UniProt P51582); assay: Calcium mobilization assay, h-P2Y4 transfected 1321N1 astrocytoma cells; type: cell-based; conditions: for IC50: Ca2+ mobilization inhibition, transfected 1321N1 cells, read-out: IC50 ± SEM h-P2Y4
T2 construct: host or cells: human 1321N1 astrocytoma cells, stably transfected
Experimental: as §1, §2

[4] = molecular target: T3, h-P2Y2 (Homo sapiens, UniProt P41231); assay: Calcium mobilization assay, h-P2Y2 transfected 1321N1 astrocytoma cells; type: cell-based; conditions: for inhibition at 100 µM: 1321-N1, final conc of 100 μM
T3 construct: host or cells: human 1321N1 astrocytoma cells, stably transfected
Experimental: as §1, §2

[5] = MTT assay, HEK-293; type: cell-based; conditions: human, HEK-293 cells; at 50 µM; triplicate; read-out: HEK-293 Cell Line (%cytotoxicity ±SEM)
[6] = molecular target: T4, t-P2Y1 (Meleagris gallopavo, UniProt P49652); assay: Calcium mobilization assay, t-P2Y1 transfected 1321N1 astrocytoma cells; type: cell-based; conditions: for inhibition at 100 µM: 1321-N1, final conc of 100 μM
T4 construct: host or cells: human 1321N1 astrocytoma cells, stably transfected
Experimental: as §1, §2

[7] = MTT assay, HeLa; type: cell-based; conditions: human, HeLa cells; at 50 µM; triplicate; read-out: HeLa Cell Line (%cytotoxicity ±SEM)
[8] = 1321-N1, final conc of 100 μM, 500 μM UTP, read-out: % Inhibition h-P2Y4
[9] = Ca2+ mobilization inhibition, transfected 1321N1 cells, 100 μM ADP, read-out: IC50 ± SEM t-P2Y1
[10] = Ca2+ mobilization inhibition, transfected 1321N1 cells, 100 μM of UDP, read-out: IC50 ± SEM r-P2Y6
[11] = Ca2+ mobilization inhibition, transfected 1321N1 cells, 500 μM ATP, read-out: IC50 ± SEM h-P2Y2

T3 sequence (P41231 whole entry): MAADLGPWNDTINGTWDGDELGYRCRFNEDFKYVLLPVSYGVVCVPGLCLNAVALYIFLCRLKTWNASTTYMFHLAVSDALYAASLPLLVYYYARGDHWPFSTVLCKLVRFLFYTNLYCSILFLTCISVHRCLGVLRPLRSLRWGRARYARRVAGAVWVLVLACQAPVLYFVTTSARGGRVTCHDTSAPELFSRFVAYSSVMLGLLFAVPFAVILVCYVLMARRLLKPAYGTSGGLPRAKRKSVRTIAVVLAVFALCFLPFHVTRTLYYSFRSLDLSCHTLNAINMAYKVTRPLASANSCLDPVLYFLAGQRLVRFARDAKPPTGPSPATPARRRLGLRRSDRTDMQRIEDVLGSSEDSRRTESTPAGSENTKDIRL
T4 sequence (P49652 whole entry): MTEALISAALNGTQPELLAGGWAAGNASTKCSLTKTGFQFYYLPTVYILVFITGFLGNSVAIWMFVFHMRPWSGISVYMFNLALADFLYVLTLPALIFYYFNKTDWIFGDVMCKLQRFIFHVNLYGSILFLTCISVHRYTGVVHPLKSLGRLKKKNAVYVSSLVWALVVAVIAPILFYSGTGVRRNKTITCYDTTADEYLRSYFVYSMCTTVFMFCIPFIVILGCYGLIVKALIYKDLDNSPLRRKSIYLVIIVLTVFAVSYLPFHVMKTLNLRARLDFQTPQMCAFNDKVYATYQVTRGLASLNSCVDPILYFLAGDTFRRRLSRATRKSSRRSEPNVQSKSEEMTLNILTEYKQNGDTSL
T1 sequence (Q63371 whole entry): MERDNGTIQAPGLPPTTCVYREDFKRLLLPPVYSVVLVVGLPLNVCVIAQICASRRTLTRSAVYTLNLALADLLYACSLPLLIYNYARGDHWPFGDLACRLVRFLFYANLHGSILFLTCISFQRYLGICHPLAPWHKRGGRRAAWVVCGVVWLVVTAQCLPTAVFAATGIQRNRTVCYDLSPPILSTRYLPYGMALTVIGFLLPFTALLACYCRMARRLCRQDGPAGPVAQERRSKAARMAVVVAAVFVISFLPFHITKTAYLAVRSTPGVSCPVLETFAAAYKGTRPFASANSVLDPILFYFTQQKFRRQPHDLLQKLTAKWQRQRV
T2 sequence (P51582 whole entry): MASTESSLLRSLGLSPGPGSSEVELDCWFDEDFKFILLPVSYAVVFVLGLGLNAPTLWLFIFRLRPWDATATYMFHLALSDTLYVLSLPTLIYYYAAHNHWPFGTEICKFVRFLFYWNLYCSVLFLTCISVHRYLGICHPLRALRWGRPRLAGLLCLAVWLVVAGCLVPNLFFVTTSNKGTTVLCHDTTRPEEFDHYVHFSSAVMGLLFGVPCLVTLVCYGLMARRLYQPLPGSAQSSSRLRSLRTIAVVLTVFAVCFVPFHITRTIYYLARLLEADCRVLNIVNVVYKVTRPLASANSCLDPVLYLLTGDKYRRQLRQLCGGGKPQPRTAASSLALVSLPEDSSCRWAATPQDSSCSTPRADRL

| Structure (SMILES) | inhibition at 100 µM ([1]; 100 μM of UDP) [%] | melting point [°C] | cytotoxicity at 24 h, 50 µM [2] [%] | inhibition at 100 µM [3, 8] [%] | inhibition at 100 µM ([4]; 500 μM ATP) [%] | cytotoxicity at 24 h, 50 µM [5] [%] | IC50 [6, 9] [µM] | cytotoxicity at 24 h, 50 µM [7] [%] | inhibition at 100 µM ([6]; 100 μM ADP) [%] | IC50 [1, 10] [µM] | IC50 [1] [µM] | inhibition at 100 µM ([3]; 1321-N1, read-out: % Inhibition h-P2Y4) [%] | IC50 [4] [µM] | IC50 [6] [µM] | IC50 ([3]; 500 μM UTP) [µM] | IC50 [4, 11] [µM] |
| --- | --- | --- | --- | --- | --- | --- | --- | --- | --- | --- | --- | --- | --- | --- | --- | --- |
| Cc1ccc([N+](=O)[O-])cc1S(=O)(=O)NC(=O)n1c(N)nc2ccccc21 [1g, 2-Amino-N-((2-methyl-5-nitrophenyl)sulfonyl)-1H-benzo [d]imidazole-1-carboxamide] | 40 | 183 to 184 | 46.2 ± 0.2 | 13 | 33 | 14.3 ± 0.3 | 11.2 ± 0.71 | 11.6 ± 1.1 |  |  |  |  |  |  |  |  |
| Cc1ccc(S(=O)(=O)NC(=O)n2c(N)nc3ccccc32)cc1 [1w, 2-Amino-N-tosyl-1H-benzo [d]imidazole-1-carboxamide] | 39 | 165 to 167 | 23.2 ± 0.3 | 41 | 23 | 27.4 ± 0.3 |  | 21.3 ± 0.5 | 49 |  |  |  |  |  |  |  |
| COc1ccc(S(=O)(=O)NC(=O)n2c(Cl)nc3ccccc32)cc1 [1p, 2-Chloro-N-((4-methoxyphenyl)sulfonyl)-1H-benzo [d]imidazole-1-carboxamide] |  | 160 to 162 | 21.2 ± 0.3 | 20 | 12 | 24.2 ± 0.7 | 5.59 ± 0.91 | 20.5 ± 0.2 |  | 16.3 ± 0.83 |  |  |  |  |  |  |
| Cc1ccc([N+](=O)[O-])cc1S(=O)(=O)NC(=O)n1c(N)nc2cc([N+](=O)[O-])ccc21 [1c, 2-Amino-N-((2-methyl-5-nitrophenyl)sulfonyl)-5-nitro-1H-benzo [d]imidazole-1-carboxamide] |  | 117 to 119 | 21.1 ± 0.6 |  |  | 19.5 ± 0.4 |  | 26.4 ± 0.7 |  |  | 16.1 ± 0.59 | 42 | 6.32 ± 1.1 | 11.11 ± 0.04 |  |  |
| O=C(NS(=O)(=O)c1ccc(-c2ccccc2)cc1)n1c(Cl)nc2ccccc21 [1r, N-([1.1′-biphenyl]-4-ylsulfonyl)-2-chloro-1H-benzo [d]imidazole-1-carboxamide] | 34 | 172 to 174 | 31.5 ± 0.4 | 22 | 47 | 33.2 ± 0.1 | 23.44 ± 0.22 | 26.5 ± 0.5 |  |  |  |  |  |  |  |  |
| Cc1ccc(S(=O)(=O)NC(=O)n2c(N)nc3cc([N+](=O)[O-])ccc32)cc1 [1b, 2-Amino-5-nitro-N-tosyl-1H-benzo [d]imidazole-1-carboxamide] | 21 | 113 to 115 | 17.3 ± 0.8 | 18 | 38 | 21.3 ± 0.2 |  | 21.6 ± 0.2 | 33 |  |  |  |  |  |  |  |
| Nc1nc2ccccc2n1C(=O)NS(=O)(=O)c1cc(Cl)cc(Cl)c1O [1e, 2-Amino-N-((3,5-dichloro-2-hydroxyphenyl)sulfonyl)-1H-benzo [d]imidazole-1-carboxamide] |  | 115 to 117 | 39.9 ± 0.2 |  |  | 16.3 ± 0.2 | 0.46 ± 0.01 | 21.3 ± 0.6 |  | 0.75 ± 0.08 |  |  |  |  | 0.6 ± 0.01 | 5.5 ± 1.21 |
| O=C(NS(=O)(=O)c1ccccc1)n1c(Cl)nc2ccccc21 [1q, 2-Chloro-N-(phenylsulfonyl)-1H-benzo [d]imidazole-1-carboxamide] | 48 | 179 to 181 | 33.6 ± 0.7 | 13 |  | 30.1 ± 0.2 | 14.6 ± 1.01 | 29.7 ± 1.1 |  |  |  |  |  |  |  | 13.6 ± 1.97 |
| O=C(NS(=O)(=O)c1ccc(Cl)cc1)n1c(Cl)nc2ccccc21 [1s, 2-Chloro-N-((4-chlorophenyl)sulfonyl)-1H-benzo [d]imidazole-1-carboxamide] |  | 180 to 182 | 14.4 ± 0.2 |  |  | 12.1 ± 0.7 | 3.11 ± 0.23 | 19.5 ± 0.2 |  | 12.7 ± 1.02 |  |  |  |  | 2.67 ± 0.07 | 6.15 ± 1.08 |
| O=C(NS(=O)(=O)c1ccc(Cl)cc1)n1c(-c2ccccc2)nc2ccccc21 [1n, N-((4-chlorophenyl)sulfonyl)-2-phenyl-1H-benzo [d]imidazole-1-carboxamide] |  | 158 to 160 | 26.5 ± 0.4 | 19 | 21 | 38.7 ± 0.3 | 5.69 ± 0.23 | 22.4 ± 0.8 |  | 7.06 ± 1.47 |  |  |  |  |  |  |
| Nc1nc2cc(Cl)ccc2n1C(=O)NS(=O)(=O)c1ccc(Cl)cc1 [1i, 2-Amino-5-chloro-N-((4-chlorophenyl)sulfonyl)-1H-benzo [d]midazole-1-carboxamide] | 41 | 129 to 131 | 38.7 ± 0.8 | 34 |  | 36.2 ± 0.1 | 1.21 ± 0.07 | 39.3 ± 0.4 |  |  |  |  |  |  |  | 15.7 ± 1.48 |
| Cc1ccc([N+](=O)[O-])cc1S(=O)(=O)NC(=O)n1c(N)nc2cc(Cl)ccc21 [1j, 2-Amino-5-chloro-N-((2-methyl-5-nitrophenyl)sulfonyl)-1H-benzo [d]imidazole-1-carboxamide] |  | 144 to 146 | 44.3 ± 0.6 | 42 | 32 | 38.2 ± 0.4 | 13.4 ± 0.22 | 26.1 ± 0.7 |  | 25.4 ± 3.1 |  |  |  |  |  |  |
